Measurements from publication PMC12275099, “VX-445 (elexacaftor) inhibits chloride secretion across human bronchial epithelial cells by directly blocking KCa3.1 channels” (PNAS Nexus, 2025).
Values joined by “and” are separate entries in the source; they are usually repeats but may differ in a detail not shown here. Equal values may be shown once.

Experiments:
KCa3.1 = target: T1, KCa3.1 (Homo sapiens, UniProt O15554); experiment: Excised inside-out patch-clamp on HEK-KCa3.1; type: biochemical
T1 construct: expressed in transfected cells
Procedure: Our Isc results are consistent with VX-445 inhibiting KCa3.1 in HBEs. To directly assess this possibility, we initially carried out whole-cell patch-clamp studies on undifferentiated HBEs. […] Upon application of 10 µM VX-445, a majority of this current was inhibited, averaging 87 ± 4% (n = 3, P < 0.005; Fig. 3B). A summary of the current–voltage (I–V) relationship—normalized to cell capacitance—is shown in Fig. 3C, which also includes the whole-cell I–V in the presence of Tram-34. […] To ensure isolation of KCa3.1 currents and to more fully characterize this VX-445-dependent inhibition of KCa3.1, we utilized HEK cells heterologously expressing KCa3.1 (HEK-KCa3.1). Initially, we confirmed our results from HBEs, using whole-cell recordings, as above. […] In seven experiments, this inhibition averaged 58 ± 7% (P < 0.005). […] It is well recognized that drugs are carried to their targets in the blood bound to albumin, which ranges from 3.4 to 5.4%. Thus, we determined whether VX-445 (10 µM) would inhibit KCa3.1 expressed in HEK cells in the presence of 3.4% albumin. In four experiments, VX-445 inhibited an average of 51 ± 17% of the whole-cell KCa3.1 current, which is not different from that observed in the absence of albumin. To confirm the direct effect of VX-445 on KCa3.1, we utilized the excised, inside-out patch-clamp technique. The patch was then exposed to DCEBIO (100 µM) to further activate the channels ([34–37])—analogous to our Isc studies in HBEs. […] In three experiments, VX-445 inhibited an average of 63 ± 6% of the KCa3.1 current. Based on these experiments, we determined the apparent inhibitory constant, Ki for VX-445. For these experiments, patches were excised into saturating Ca^2+ (3 µM) to ensure maximal KCa3.1 activation. These studies were carried out in the absence of DCEBIO to eliminate the possibility that the inhibition observed was due to competition for the DCEBIO-binding site.
(§1) HEK cells stably expressing KCa3.1 (IK1, SK4), KCa2.3 (SK3), and KCa2.2 (SK2) were generated and cultured as previously described by us ([37], [66–71]).
(§2) HEK cells expressing the channel of interest were plated onto poly-L-lysine-coated glass coverslips 1–2 days prior to patch-clamp analysis. Electrophysiological recordings in the excised, inside-out, and whole-cell patch-clamp configurations were performed as recently described ([14]). For excised patch-clamp recordings, the pipette solution contained (in mM): 140 K-gluconate, 5 KCl, 1 CaCl2, 1 MgCl2, and 10 HEPES. The pH was adjusted to 7.2 with KOH. The bath solution contained (in mM): 145 K-gluconate, 5 KCl, 1.3 MgCl2, 10 HEPES, and 1 EGTA. Sufficient CaCl2 was added to obtain the desired free Ca^2+ concentration at a pH of 7.2 (adjusted with KOH). When recording KCa3.1 channels, ATP (300 µM) was added to the bath to diminish channel rundown ([73]). All recordings were carried out at a voltage of −100 mV, referenced to the extracellular compartment, as is standard. The apparent Ki and Hill coefficient for each CFTR corrector on KCa3.1, KCa2.3, and KCa2.2 were determined during a continuous recording by step-wise addition of increasing concentrations of compound and fitting the resultant relative remaining current to a Hill equation (Prism v. 10.1.0). The zero current level was determined by the addition of a 0 Ca^2+ solution (zero-added Ca^2+ plus 1 mM EGTA) at the end of the experiment. In the case of KCa3.1, TRAM-34, a known inhibitor of KCa3.1 ([45]), was used to confirm expression of the channel. For whole-cell experiments, pipettes contained (in mM): 145 K-gluconate, 10 EGTA, 7.5 CaCl2, 2 MgCl2, 3 mM NaATP, and 10 HEPES. The bath solution contained (in mM): 140 K-gluconate, 5 KCl, 1.0 MgCl2, 10 HEPES, and 2 CaCl2. Current–voltage relationships were determined by stepping from a holding potential of −80 mV to +80 mV in 20 mV increments for 400 ms. […]

KCa2.3 = KCa2.3 (Homo sapiens, UniProt Q9UGI6); experiment: Excised inside-out patch-clamp on HEK cells expressing KCa2.3; type: biochemical
Chain of KCa2.3 (Q9UGI6 whole entry): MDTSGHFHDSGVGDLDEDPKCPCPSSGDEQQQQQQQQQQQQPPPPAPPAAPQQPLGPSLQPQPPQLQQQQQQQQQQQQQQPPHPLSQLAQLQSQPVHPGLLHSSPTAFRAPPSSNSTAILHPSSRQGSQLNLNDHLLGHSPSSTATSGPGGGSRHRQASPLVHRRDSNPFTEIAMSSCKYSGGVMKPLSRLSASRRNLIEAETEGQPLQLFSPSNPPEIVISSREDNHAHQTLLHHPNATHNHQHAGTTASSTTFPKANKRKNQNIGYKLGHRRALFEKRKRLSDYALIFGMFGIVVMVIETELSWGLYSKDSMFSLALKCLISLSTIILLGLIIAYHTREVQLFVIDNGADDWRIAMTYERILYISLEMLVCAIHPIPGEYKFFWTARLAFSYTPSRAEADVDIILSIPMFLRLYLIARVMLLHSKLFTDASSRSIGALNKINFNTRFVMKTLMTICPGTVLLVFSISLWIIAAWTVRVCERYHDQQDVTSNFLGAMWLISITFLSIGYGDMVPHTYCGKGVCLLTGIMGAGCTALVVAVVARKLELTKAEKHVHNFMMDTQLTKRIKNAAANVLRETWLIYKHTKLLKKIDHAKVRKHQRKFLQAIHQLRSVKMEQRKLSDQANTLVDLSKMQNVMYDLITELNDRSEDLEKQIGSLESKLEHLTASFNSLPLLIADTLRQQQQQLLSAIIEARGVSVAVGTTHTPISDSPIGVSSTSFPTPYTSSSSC
Procedure: (§3) As above, we performed excised patch-clamp recordings on HEK cells heterologously expressing KCa2.3 or KCa2.2, in order to assess the activity of C2 CFTR corrector compounds. […] In contrast, the subsequent addition of 10 µM VX-659 yielded an almost complete inhibition of KCa2.3 currents, averaging 91 ± 3% (n = 4).
as §1
as §2, with “In the case of KCa3.1, TRAM-34, a known inhibitor of KCa3.1 ([45]), was used to confirm expression of the channel. For whole-cell experiments, pipettes contained (in mM): 145 K-gluconate, 10 EGTA, 7.5 CaCl2, 2 MgCl2, 3 mM NaATP, and 10 HEPES. The bath solution contained (in mM): 140 K-gluconate, 5 KCl, 1.0 MgCl2, 10 HEPES, and 2 CaCl2.” left out, “ms. The middle 300 ms of each trace was selected to avoid any influence of capacitive transients, and average currents were calculated for each voltage via the I–V tool in Clampfit.” for “ms.”

KCa2.2 = KCa2.2 (Rattus norvegicus, UniProt P70604); experiment: Excised inside-out patch-clamp on HEK cells expressing KCa2.2; type: biochemical; conditions: 1 µM free Ca2+
Chain of KCa2.2 (P70604 whole entry): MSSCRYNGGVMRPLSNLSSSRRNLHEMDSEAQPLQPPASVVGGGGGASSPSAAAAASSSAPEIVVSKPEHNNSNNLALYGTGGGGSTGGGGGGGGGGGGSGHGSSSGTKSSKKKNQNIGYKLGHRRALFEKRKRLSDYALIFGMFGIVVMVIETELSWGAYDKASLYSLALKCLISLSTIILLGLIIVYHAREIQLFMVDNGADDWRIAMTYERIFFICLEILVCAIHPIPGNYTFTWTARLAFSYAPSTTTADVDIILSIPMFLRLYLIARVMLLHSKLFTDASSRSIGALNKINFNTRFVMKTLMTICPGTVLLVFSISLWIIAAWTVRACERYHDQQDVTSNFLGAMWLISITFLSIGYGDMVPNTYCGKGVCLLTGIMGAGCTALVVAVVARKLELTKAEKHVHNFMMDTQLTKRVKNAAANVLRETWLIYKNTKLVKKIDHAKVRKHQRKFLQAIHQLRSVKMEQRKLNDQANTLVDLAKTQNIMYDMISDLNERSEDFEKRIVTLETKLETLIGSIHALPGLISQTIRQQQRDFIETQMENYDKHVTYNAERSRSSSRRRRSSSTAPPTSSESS
Procedure: as §3, §1
HEK cells expressing the channel of interest were plated onto poly-L-lysine-coated glass coverslips 1–2 days prior to patch-clamp analysis. […] The apparent Ki and Hill coefficient for each CFTR corrector on KCa3.1, KCa2.3, and KCa2.2 were determined during a continuous recording by step-wise addition of increasing concentrations of compound and fitting the resultant relative remaining current to a Hill equation (Prism v. 10.1.0). The zero current level was determined by the addition of a 0 Ca^2+ solution (zero-added Ca^2+ plus 1 mM EGTA) at the end of the experiment. […] Current–voltage relationships were determined by stepping from a holding potential of −80 mV to +80 mV in 20 mV increments for 400 ms. The middle 300 ms of each trace was selected to avoid any influence of capacitive transients, and average currents were calculated for each voltage via the I–V tool in Clampfit. […]

[1] = system: BKCa (KCa1.1, KCNMA1) channels; set-up: method as in PMID 38954478; conditions: primary HBEs and HEK cells heterologously expressing the channel; cited from earlier work

Compound: C[C@@H]1CN(c2nc(-n3ccc(OCCC4(C(F)(F)F)CC4)n3)ccc2C(=O)NS(=O)(=O)c2ccccc2)C(C)(C)C1 [VX-659, bamocaftor]
- Hill coefficient (KCa3.1; 3 µM free Ca2+, absence of DCEBIO): 1.8
- Ki (KCa3.1; 3 µM free Ca2+, absence of DCEBIO, Hill fit, n = 4, read-out: apparent Ki): 890 nM and 900 nM
- inhibition at 10 µM (KCa3.1; 10 µM compound after DCEBIO 100 µM, 1 µM free Ca2+, three experiments, read-out: inhibition of KCa3.1 current in excised patch): 98 ± 1%
- selectivity among KCNN gene family members (KCa3.1; KCa3.1 versus KCa2.2 and KCa2.3): inhibits all members of the KCNN gene family with a similar affinity
- relative remaining current (KCa3.1; [VX-659] 0.3, Fig 4G single experiments): 89 and 100 and 78 and 88
- Hill coefficient (KCa2.3; 1 µM free Ca2+): 1.9 and 1.3
- inhibition at 10 µM (KCa2.3; read-out: inhibition of KCa2.3 currents): 91 ± 3%
- Hill coefficient (KCa2.2): 1.6 and 2.1
- effect on BKCa [1]: weakly potentiates
